Tests used:
Format in all cases: cell-based
BRAF G469A = biological target: T1, BRAF G469A (Homo sapiens, UniProt P15056, G469A); experiment: BRAF HiBiT degradation assay, C-terminal HiBiT-tagged BRAF G469A overexpressed in HCT-116 BRAF−/− cells (clone 34), Nano-Glo HiBiT Lytic assay
T1 construct: Horizon Discovery (HCT-116 BRAF−/− cells); host or cells: HCT-116 BRAF−/− cells, clone 34, lentiviral transduction
Outline: (§1)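 Cells 3,000/well, 24 h at 37 °C; cpds 1 μM–0.01 nM, 11-pt half-log, duplicate, 0.2% DMSO. Readout: HiBiT lytic luminescence, 10 min at RT. Normalized to DMSO-treated tagged cells, with DMSO-treated wild-type HCT-116 as background. DC50 = fitted concentration at Y=50; Obs. Dmax = % degraded at maximal effect.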

BRAF D594G = biological target: T2, BRAF D594G (Homo sapiens, UniProt P15056, D594G); experiment: BRAF HiBiT degradation assay, C-terminal HiBiT-tagged BRAF D594G overexpressed in HCT-116 BRAF−/− cells (clone 63), Nano-Glo HiBiT Lytic assay
T2 construct: Horizon Discovery (HCT-116 BRAF−/− cells); host or cells: HCT-116 BRAF−/− cells, clone 63, lentiviral transduction
Outline: as §1

BRAF V600E = biological target: T3, BRAF V600E (Homo sapiens, UniProt P15056, V600E); experiment: BRAF HiBiT degradation assay, C-terminal HiBiT-tagged BRAF V600E A375 cells (clone 1F10), Nano-Glo HiBiT Lytic assay; conditions: for Dmax: A-375
T3 construct: endogenous C-terminal HiBiT fusion tag on BRAF V600E allele; endogenous in cells; host or cells: A375 clone 1F10 (CRISPR-Cas9 knock-in of the HiBiT tag; parental A375 from ATCC)
Outline: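 Luminescence read-out: Nano-Glo HiBiT lytic reagent with LgBiT, 10 min at room temperature. Signal normalised to DMSO-treated tagged cells, with wildtype A375 as background. Cells are endogenously tagged BRAF V600E A375 clone 1F10. Compounds were tested from 1 μM to 0.01 nM; Dmax is observed % degraded at maximal effect.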

BRAF G466V = biological target: T4, BRAF G466V (Homo sapiens, UniProt P15056, G466V); experiment: BRAF HiBiT degradation assay, C-terminal HiBiT-tagged BRAF G466V overexpressed in HCT-116 BRAF−/− cells (clone 8), Nano-Glo HiBiT Lytic assay
T4 construct: Horizon Discovery (HCT-116 BRAF−/− cells); host or cells: HCT-116 BRAF−/− cells, clone 8, lentiviral transduction
Outline: as §1

[1] = Class 2, BRAF G469A, DC50 at 50%: fitted conc. at Y=50
[2] = HCT-116, Class 2, BRAF G469A, percentage protein degraded at maximal compound effect relative to DMSO
[3] = BRAF D594G, DC50 at 50%: fitted conc. at Y=50
[4] = HCT-116, BRAF D594G, percentage protein degraded at maximal compound effect relative to DMSO
[5] = A375 (BRAF V600E), DC50 at 50%: fitted conc. at Y=50
[6] = A375 (BRAF V600E), percentage protein degraded at maximal compound effect relative to DMSO
[7] = BRAF G466V, DC50 at 50%: fitted conc. at Y=50
[8] = HCT-116, BRAF G466V, percentage protein degraded at maximal compound effect relative to DMSO
[9] = BRAF G469A (Class 2), HCT-116 BRAF−/− cells, DC50 at 50% degradation
[10] = BRAF G469A (Class 2), HCT-116 BRAF−/− cells, observed Dmax relative to DMSO control
[11] = BRAF D594G (Class 3), HCT-116 BRAF−/− cells, DC50 at 50% degradation
[12] = BRAF D594G (Class 3), HCT-116 BRAF−/− cells, observed Dmax relative to DMSO control
[13] = A375 (BRAF V600E, Class 1), DC50 at 50% degradation
[14] = A375 (BRAF V600E, Class 1), observed Dmax, % protein degraded relative to DMSO control
[15] = BRAF G466V (Class 3), HCT-116 BRAF−/− cells, DC50 at 50% degradation
[16] = BRAF G466V (Class 3), HCT-116 BRAF−/− cells, observed Dmax relative to DMSO control

T3 sequence (P15056 whole entry V600E, the tested form may be a part): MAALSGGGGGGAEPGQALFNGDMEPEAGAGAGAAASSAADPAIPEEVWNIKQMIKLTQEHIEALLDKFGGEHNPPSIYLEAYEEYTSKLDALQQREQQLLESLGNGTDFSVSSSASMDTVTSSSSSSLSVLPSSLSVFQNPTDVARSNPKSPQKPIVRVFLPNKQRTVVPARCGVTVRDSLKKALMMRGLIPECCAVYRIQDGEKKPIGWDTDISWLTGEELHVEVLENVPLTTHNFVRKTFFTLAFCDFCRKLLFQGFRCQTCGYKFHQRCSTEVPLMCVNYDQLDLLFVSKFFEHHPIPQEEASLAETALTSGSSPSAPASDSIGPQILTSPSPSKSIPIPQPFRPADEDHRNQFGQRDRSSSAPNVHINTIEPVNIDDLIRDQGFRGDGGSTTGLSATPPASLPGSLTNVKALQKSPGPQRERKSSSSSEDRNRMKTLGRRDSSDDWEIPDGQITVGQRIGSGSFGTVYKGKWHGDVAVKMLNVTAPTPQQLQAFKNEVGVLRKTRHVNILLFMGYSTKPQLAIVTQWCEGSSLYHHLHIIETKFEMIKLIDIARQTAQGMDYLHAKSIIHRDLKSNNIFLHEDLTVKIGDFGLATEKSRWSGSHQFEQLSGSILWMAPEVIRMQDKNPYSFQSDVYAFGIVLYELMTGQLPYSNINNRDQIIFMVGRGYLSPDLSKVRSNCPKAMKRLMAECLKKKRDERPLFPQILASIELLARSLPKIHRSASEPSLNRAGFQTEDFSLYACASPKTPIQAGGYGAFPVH
T1 sequence (P15056 whole entry G469A): as the sequence (P15056 whole entry V600E, the tested form may be a part) above, with G469A, E600V counted along it
T2 sequence (P15056 whole entry D594G): as the sequence (P15056 whole entry V600E, the tested form may be a part) above, with D594G, E600V counted along it
T4 sequence (P15056 whole entry G466V): as the sequence (P15056 whole entry V600E, the tested form may be a part) above, with G466V, E600V counted along it

CCCS(=O)(=O)Nc1cccc(-c2nc(C(C)(C)C)sc2-c2ccnc(NC3CC4(C3)CN(C(=O)C3(F)CCN(CC5CCN(c6ccc(C7CCC(=O)NC7=O)cc6)CC5)CC3)C4)n2)c1F (racemic) [Compound 141, Rac-N-[3-(2-tert-butyl-5-{2-[(2-{1-[(1-{4-[(3R)-2,6-dioxopiperidin-3-yl]phenyl}piperidin-4-yl)methyl]-4-fluoropiperidine-4-carbonyl}-2-azaspiro[3.3]heptan-6-yl)amino]pyrimidin-4-yl}-1,3-thiazol-4-yl)-2-fluorophenyl]propane-1-sulfonamide]
DC50 (BRAF G469A; [1]): > 500 nM | Dmax (BRAF G469A; [2]): < 30% | DC50 (BRAF D594G; [3]): > 500 nM | Dmax (BRAF D594G; [4]): < 30% | DC50 (BRAF V600E; [5]): 10 to 50 nM | Dmax (BRAF V600E; [6]): > 70% | DC50 (BRAF G466V; [7]): > 500 nM | Dmax (BRAF G466V; [8]): < 30%

CCCS(=O)(=O)Nc1cccc(-c2nc(C(C)(C)C)sc2-c2ccnc(Nc3cnn(CC4CCN(C[C@H]5CC[C@H](Oc6ccc(C7CCC(=O)NC7=O)cc6)CC5)CC4)c3)n2)c1F (mixture of isomers) [Compound 84, N-(3-{2-tert-butyl-5-[2-({1-[(1-{[(1r,4r)-4-{4-[(3RS)-2,6-dioxopiperidin-3-yl]phenoxy}cyclohexyl]methyl}piperidin-4-yl)methyl]-1H-pyrazol-4-yl}amino)pyrimidin-4-yl]-1,3-thiazol-4-yl}-2-fluorophenyl)propane-1-sulfonamide]
DC50 (BRAF G469A; [1]): > 500 nM | Dmax (BRAF G469A; [2]): < 30% | DC50 (BRAF D594G; [3]): > 500 nM | Dmax (BRAF D594G; [4]): 30 to 70% | DC50 (BRAF V600E; [5]): 50 to 500 nM | Dmax (BRAF V600E; [6]): > 70% | DC50 (BRAF G466V; [7]): > 500 nM | Dmax (BRAF G466V; [8]): < 30%

CCCS(=O)(=O)Nc1cccc(-c2nc(C3(C)CCN(C(=O)CN4CCC5(CC4)CN(c4ccc6c(c4)C(=O)N(C4CCC(=O)NC4=O)C6=O)C5)CC3)sc2-c2ccnc(N)n2)c1F (racemic) [Compound 238, Rac-N-{3-[5-(2-aminopyrimidin-4-yl)-2-{1-[2-(2-{2-[(3R)-2,6-dioxopiperidin-3-yl]-1,3-dioxo-2,3-dihydro-1H-isoindol-5-yl}-2,7-diazaspiro[3.5]nonan-7-yl)acetyl]-4-methylpiperidin-4-yl}-1,3-thiazol-4-yl]-2-fluorophenyl}propane-1-sulfonamide]
DC50 (BRAF G469A; [1]): > 500 nM | Dmax (BRAF G469A; [2]): 30 to 70% | DC50 (BRAF D594G; [3]): < 10 nM | Dmax (BRAF D594G; [4]): 30 to 70% | DC50 (BRAF V600E; [5]): < 10 nM | Dmax (BRAF V600E; [6]): > 70% | DC50 (BRAF G466V; [7]): 10 to 50 nM | Dmax (BRAF G466V; [8]): 30 to 70%

O=C1CCC(c2c(F)cc(N3CCC(CN4CCN(c5ccc(-n6cc(-c7cc(Cl)cc(NS(=O)(=O)N8CCCC8)c7F)c(-c7ccncc7)n6)cc5)CC4)CC3)cc2F)C(=O)N1 (racemic) [Compound 387, Rac-N-{5-chloro-3-[1-(4-{4-[(1-{4-[(3R)-2,6-dioxopiperidin-3-yl]-3,5-difluorophenyl}piperidin-4-yl)methyl]piperazin-1-yl}phenyl)-3-(pyridin-4-yl)-1H-pyrazol-4-yl]-2-fluorophenyl}pyrrolidine-1-sulfonamide]
DC50 (BRAF G469A; [9]): 10 to 50 nM | Dmax (BRAF G469A; [10]): 30 to 70% | DC50 (BRAF D594G; [11]): < 10 nM | Dmax (BRAF D594G; [12]): 30 to 70% | DC50 (BRAF V600E; [13]): 10 to 50 nM | Dmax (BRAF V600E; [14]): > 70% | DC50 (BRAF G466V; [15]): < 10 nM | Dmax (BRAF G466V; [16]): > 70%

O=C1CC[C@H](c2ccc(N3CCC(CN4CCN(c5ccc(-n6cc(-c7cc(C(F)F)cc(NS(=O)(=O)N8CCCC8)c7F)c(-c7ccncc7)n6)cc5)CC4)CC3)cc2)C(=O)N1 [Compound 349, N-[5-(difluoromethyl)-3-[1-(4-{4-[(1-{4-[(3R)-2,6-dioxopiperidin-3-yl]phenyl}piperidin-4-yl)methyl]piperazin-1-yl}phenyl)-3-(pyridin-4-yl)-1H-pyrazol-4-yl]-2-fluorophenyl]pyrrolidine-1-sulfonamide]
DC50 (BRAF G469A; [9]): < 10 nM | Dmax (BRAF G469A; [10]): > 70% | DC50 (BRAF D594G; [11]): < 10 nM | Dmax (BRAF D594G; [12]): > 70% | DC50 (BRAF V600E; [13]): < 10 nM | Dmax (BRAF V600E; [14]): > 70% | DC50 (BRAF G466V; [15]): < 10 nM | Dmax (BRAF G466V; [16]): > 70%

CCCS(=O)(=O)Nc1cccc(-c2nc(C(C)(C)C)sc2-c2ccnc(Nc3cnn(C4CCN(C(=O)CN5CCC(c6ccc(NC7CCC(=O)NC7=O)cc6)CC5)CC4)c3)n2)c1F (racemic) [Compound 108, Rac-N-{3-[2-tert-butyl-5-(2-{[1-(1-{2-[4-(4-{[(3R)-2,6-dioxopiperidin-3-yl]amino}phenyl)piperidin-1-yl]acetyl}piperidin-4-yl)-1H-pyrazol-4-yl]amino}pyrimidin-4-yl)-1,3-thiazol-4-yl]-2-fluorophenyl}propane-1-sulfonamide]
DC50 (BRAF G469A; [1]): > 500 nM | Dmax (BRAF G469A; [2]): < 30% | DC50 (BRAF D594G; [3]): > 500 nM | Dmax (BRAF D594G; [4]): 30 to 70% | DC50 (BRAF V600E; [5]): < 10 nM | Dmax (BRAF V600E; [6]): > 70% | DC50 (BRAF G466V; [7]): > 500 nM | Dmax (BRAF G466V; [8]): < 30%

CCCS(=O)(=O)Nc1cccc(-c2nc(C(C)(C)C)sc2-c2ccnc(Nc3cccc(OC4CCN(C(=O)[C@H]5CC[C@H](Oc6ccc(C7CCC(=O)NC7=O)cn6)CC5)CC4)c3)n2)c1F (mixture of isomers) [Compound 97, N-{3-[2-tert-butyl-5-(2-{[3-({1-[(1r,4r)-4-({5-[(3RS)-2,6-dioxopiperidin-3-yl]pyridin-2-yl}oxy)cyclohexanecarbonyl]piperidin-4-yl}oxy)phenyl]amino}pyrimidin-4-yl)-1,3-thiazol-4-yl]-2-fluorophenyl}propane-1-sulfonamide]
DC50 (BRAF G469A; [1]): > 500 nM | Dmax (BRAF G469A; [2]): < 30% | DC50 (BRAF D594G; [3]): > 500 nM | Dmax (BRAF D594G; [4]): 30 to 70% | DC50 (BRAF V600E; [5]): 10 to 50 nM | Dmax (BRAF V600E; [6]): > 70% | DC50 (BRAF G466V; [7]): > 500 nM | Dmax (BRAF G466V; [8]): 30 to 70%

CCCS(=O)(=O)Nc1cc(Cl)cc(-c2cn(-c3ccc(N4CCN(CC5CCN(c6ccc(N7CCC(=O)NC7=O)cc6)CC5)[C@@H](C)C4)cc3)nc2-c2ccncc2)c1F [Compound 280, N-[5-chloro-3-(1-{4-[(3S)-4-({1-[4-(2,4-dioxo-1,3-diazinan-1-yl)phenyl]piperidin-4-yl}methyl)-3-methylpiperazin-1-yl]phenyl}-3-(pyridin-4-yl)-1H-pyrazol-4-yl)-2-fluorophenyl]propane-1-sulfonamide]
DC50 (BRAF G469A; [9]): > 500 nM | Dmax (BRAF G469A; [10]): < 30% | DC50 (BRAF D594G; [11]): > 500 nM | Dmax (BRAF D594G; [12]): < 30% | DC50 (BRAF V600E; [13]): 10 to 50 nM | Dmax (BRAF V600E; [14]): > 70% | DC50 (BRAF G466V; [15]): > 500 nM | Dmax (BRAF G466V; [16]): 30 to 70%

CCN(C)S(=O)(=O)Nc1cccc(-c2cn(-c3ccc(N4CCN(CC5CCN(c6ccc([C@H]7CCC(=O)NC7=O)cn6)CC5)CC4)cc3F)nc2-c2ccncc2)c1F [Compound 379, (3R)-3-(6-{4-[(4-{4-[4-(3-{[ethyl(methyl)sulfamoyl]amino}-2-fluorophenyl)-3-(pyridin-4-yl)-1H-pyrazol-1-yl]-3-fluorophenyl}piperazin-1-yl)methyl]piperidin-1-yl}pyridin-3-yl)piperidine-2,6-dione]
DC50 (BRAF G469A; [9]): > 500 nM | Dmax (BRAF G469A; [10]): 30 to 70% | DC50 (BRAF D594G; [11]): 50 to 500 nM | Dmax (BRAF D594G; [12]): 30 to 70% | DC50 (BRAF V600E; [13]): 50 to 500 nM | Dmax (BRAF V600E; [14]): > 70% | DC50 (BRAF G466V; [15]): 50 to 500 nM | Dmax (BRAF G466V; [16]): 30 to 70%

CCCS(=O)(=O)Nc1cccc(-c2nc(C(C)(C)C)sc2-c2ccnc(Nc3ccc4c(c3)CCN(CC3CCN(c5ccc6c(=O)n(C7CCC(=O)NC7=O)ccc6c5)CC3)C4)n2)c1F (racemic) [Compound 85, Rac-N-(3-{2-tert-butyl-5-[2-({2-[(1-{2-[(3R)-2,6-dioxopiperidin-3-yl]-1-oxo-1,2-dihydroisoquinolin-6-yl}piperidin-4-yl)methyl]-1,2,3,4-tetrahydroisoquinolin-6-yl}amino)pyrimidin-4-yl]-1,3-thiazol-4-yl}-2-fluorophenyl)propane-1-sulfonamide]
DC50 (BRAF G469A; [1]): > 500 nM | Dmax (BRAF G469A; [2]): < 30% | DC50 (BRAF D594G; [3]): > 500 nM | Dmax (BRAF D594G; [4]): 30 to 70% | DC50 (BRAF V600E; [5]): 10 to 50 nM | Dmax (BRAF V600E; [6]): 30 to 70% | DC50 (BRAF G466V; [7]): > 500 nM | Dmax (BRAF G466V; [8]): 30 to 70%

— US20260317324A1, “BIFUNCTIONAL COMPOUNDS FOR DEGRADING BRAF VIA UBIQUITIN PROTEOSOME PATHWAY” (Nurix Therapeutics, Inc., priority 2023, published 2026)
